{"source": "patent US6369083B1", "about": "“2-methoxyimino-2 (pyrinyloxymethyl) phenyl acetamides with polyether derivatives on the pyridine ring” (Dow AgroSciences LLC, priority 1998, dated 2002)", "assay_type_in_all_cases": "in vivo", "key": {"[1]": {"tested_on": "Erysiphe graminis", "test": "Powdery Mildew of Wheat (ERYSGT)", "details": "wheat (cultivar Monon), inoculated, sprayed at 25 ppm after 48 hours", "experimental": "Compound Formulation: […] Final treatment volumes were obtained by adding nine volumes 0.05kOO aqueous Tween-20 or Triton X-100, depending upon the pathogen. Powdery Mildew of Wheat (Erysiphe graminis-[…]): Wheat (cultivar Monon) was grown in a soilless peat-based potting mixture (Metromix) until the seedlings were 1-2 leaf (BBCH 12). These plants were then inoculated with Erysiphe graminis by dusting spores from stock plants onto the test plants. After 48 hours the plants were sprayed to run off with the test compound at a rate of 25 ppm and then kept in the greenhouse until disease developed on the untreated control plants. The following table presents the activity of typical compounds of the present invention when evaluated in these experiments. The effectiveness of the test compounds in controlling disease was rated using the following scale: […]"}, "[2]": {"tested_on": "Leptosphaeria nodorum", "test": "Glume blotch of wheat (LEPTNO)", "details": "wheat (cultivar Monon), sprayed at 100 ppm, inoculated after 24 hours", "experimental": "(§1) Compound Formulation: […] Final treatment volumes were obtained by adding nine volumes 0.05kOO aqueous Tween-20 or Triton X-100, depending upon the pathogen. Glume blotch of wheat (Leptosphaeria nodorum-[…]): Wheat (cultivar Monon) was grown from seed in a soilless peat-based potting mixture (Metromix) until the seedlings were 1-2 leaf (BBCH 12). These plants were then sprayed to run off with the test compound at a rate of 100 ppm. After 24 hours the test plants were inoculated with an aqueous spore suspension of Leptosphaeria nodorum. The plants were then transferred to the greenhouse until disease developed on the untreated control plants. Brown rust (Puccinia recondita-PUCCRT): Wheat (cultivar Monon) was grown from seed in a soilless peat-based potting mixture (Metromix) until the seedlings were 1-2 leaf (BBCH 12). These plants were then sprayed to run off with the test compound at a rate of 100 ppm. After 24 hours the test plants were inoculated with an aqueous spore suspension of Puccinia recondita. The plants were then transferred to the greenhouse until disease developed on the untreated control plants. The following table presents the activity of typical compounds of the present invention when evaluated in these experiments. The effectiveness of the test compounds in controlling disease was rated using the following scale: […]"}, "[3]": {"tested_on": "Plasmopara viticola", "test": "Downy Mildew of Grape (PLASVI), 96 hour protectant", "details": "grape vines (cultivar Carignane), sprayed at 100 ppm, inoculated after 96 hours (protectant)", "experimental": "Compound Formulation: […] Final treatment volumes were obtained by adding nine volumes 0.05kOO aqueous Tween-20 or Triton X-100, depending upon the pathogen. Downy Mildew of Grape (Plasmogara viticola-[…]) (96 Hour Protectant): Vines (cultivar Carignane) were grown from seed in a soilless peat-based potting mixture (Metromix) until the seedlings were 10-20 cm tall. These plants were then sprayed to run off with the test compound at a rate of 100 ppm. After 96 hours the test plants were inoculated by spraying with an aqueous sporangia suspension of Plasmopara viticola. The plants were then transferred to the greenhouse until disease developed on the untreated control plants. The following table presents the activity of typical compounds of the present invention when evaluated in these experiments. The effectiveness of the test compounds in controlling disease was rated using the following scale: […]"}, "[4]": {"tested_on": "Puccinia recondita", "test": "Brown rust (PUCCRT)", "details": "wheat (cultivar Monon), sprayed at 100 ppm, inoculated after 24 hours", "experimental": "as §1"}}}
{"smiles": "CNC(=O)C(=NOC)c1ccccc1COc1cccc(OCC2COC(C)(C)O2)n1", "note": "(stereo not drawn) [Compound 2, Benzeneacetamide, 2-[[[6-((2,2-dimethyl-1,3-dioxolanyl)-4-methoxy)-2-pyridinyl]oxy]methy]-α-(methoxyimino)-N-methyl-]", "values": [{"measurement": "ERYSGT control of plant disease", "setting": "[1]", "value": "+ (+ = 25-74% control of plant disease)"}, {"measurement": "LEPTNO control of plant disease", "setting": "[2]", "value": "++ (++ = 75-100 % control of plant disease)"}, {"measurement": "PLASVI control of plant disease", "setting": "[3]", "value": "++ (++ = 75-100 % control of plant disease)"}, {"measurement": "PUCCRT control of plant disease", "setting": "[4]", "value": "++ (++ = 75-100 % control of plant disease)"}]}
{"smiles": "CCOCCOc1nc(OCc2ccccc2C(=NOC)C(=O)NC)c(Cl)cc1Cl", "note": "[Compound 18]", "values": [{"measurement": "ERYSGT control of plant disease", "setting": "[1]", "value": "+ (+ = 25-74% control of plant disease)"}, {"measurement": "LEPTNO control of plant disease", "setting": "[2]", "value": "++ (++ = 75-100 % control of plant disease)"}, {"measurement": "PLASVI control of plant disease", "setting": "[3]", "value": "++ (++ = 75-100 % control of plant disease)"}]}
{"smiles": "CNC(=O)C(=NOC)c1ccccc1COc1nc(OCC2COC(C)(C)O2)c(Cl)cc1Cl", "note": "(centres unmarked) [Compound 1]", "values": [{"measurement": "ERYSGT control of plant disease", "setting": "[1]", "value": "+ (+ = 25-74% control of plant disease)"}, {"measurement": "LEPTNO control of plant disease", "setting": "[2]", "value": "++ (++ = 75-100 % control of plant disease)"}, {"measurement": "PLASVI control of plant disease", "setting": "[3]", "value": "++ (++ = 75-100 % control of plant disease)"}, {"measurement": "PUCCRT control of plant disease", "setting": "[4]", "value": "++ (++ = 75-100 % control of plant disease)"}]}
